# Columns and labels:
# [1] = biological target: T1, glucagon receptor (GCGR) overexpressed CHO-K1 cells or human primary hepatocytes (Homo sapiens, UniProt P47871); assay: Glucagon cAMP inhibition assay (Cisbio cAMP Dynamic 2 HTRF); format: cell-based
# T1 construct: expressed in transfected cells; host or cells: GCGR overexpressed CHO-K1 cells or human primary hepatocytes (endogenous receptor)
# How it was run: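 GCGR-overexpressing CHO-K1 cells or human primary hepatocytes in HBSS with 0.1% BSA and 800 nM IBMX, pre-incubated 30 min with serially diluted compounds (1% DMSO final), then stimulated 30 min at room temperature with glucagon at its EC50. cAMP measured by HTRF after 60 min lysis; IC50 by non-linear regression.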
# [2] = biological target: T2, glucagon receptor (GCGR) (Homo sapiens, UniProt P47871); assay: I125-glucagon binding assay (competition, GCGR membrane fractions)
# T2 construct: expressed in transfected cells; host or cells: CHO-K1 cells overexpressing GCGR (membrane fractions)
# T2 sequence (P47871 26-477): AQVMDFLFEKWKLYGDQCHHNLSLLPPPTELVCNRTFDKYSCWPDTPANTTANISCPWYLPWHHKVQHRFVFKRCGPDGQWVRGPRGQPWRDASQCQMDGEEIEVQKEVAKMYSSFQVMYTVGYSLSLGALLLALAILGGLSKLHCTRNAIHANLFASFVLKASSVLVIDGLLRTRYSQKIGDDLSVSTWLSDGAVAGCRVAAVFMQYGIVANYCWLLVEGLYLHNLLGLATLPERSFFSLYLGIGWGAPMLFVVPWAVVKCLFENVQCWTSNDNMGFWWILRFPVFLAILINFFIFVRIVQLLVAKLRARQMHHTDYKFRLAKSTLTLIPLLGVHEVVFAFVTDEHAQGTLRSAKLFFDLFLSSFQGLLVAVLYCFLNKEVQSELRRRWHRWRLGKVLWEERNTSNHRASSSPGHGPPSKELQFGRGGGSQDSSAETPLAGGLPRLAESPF
# How it was run: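 Membranes from CHO-K1 cells overexpressing GCGR, 7.5 μg/well in 50 mM Tris pH 7.4 with 0.5% BSA, were preincubated 5 min with serially diluted compounds, then given 0.0625 nM final I^125-glucagon for 30 min at 25° C. Bound label was filtered on PEI-coated GF/B and counted; IC50 by non-linear regression.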
# T1 sequence (P47871 26-477): as above
IC50 cAMP [1],IC50 [2],SMILES
632 nM,158 nM,"CCCCC[C@H](Cc1ccc(-c2cc3ccccc3o2)cc1)Nc1ccc(C(=O)NCCC(=O)O)cc1 [Compound 19-6, (R)-3-(4-((1-(4-(benzofuran-2-yl)phenyl)heptan-2-yl)amino)benzamido)propanoic Acid]"
731 nM,299 nM,"CCCC[C@H](Cc1ccc(-c2ccc(C(C)(C)C)cc2)cc1)Nc1ccc(C(=O)NCCC(=O)O)cc1 [Compound 19-7, (R)-3-(4-((1-(4′-(tert-butyl)-[1,1′-biphenyl]-4-yl)hexan-2-yl)amino)benzamido)propanoic Acid]"
877 nM,152 nM,"CC(C)C[C@H](Cc1ccc(-c2ccc(C(C)(C)C)cc2)cc1)Nc1ccc(C(=O)NCCC(=O)O)cc1 [Compound 19-8, (R)-3-(4-((1-(4′-(tert-butyl)-[1,1′-biphenyl]-4-yl)-4-methylpentan-2-yl)amino)benzamido)propanoic Acid]"
76.8 nM,151 nM,"CCCCC[C@@H](Cc1ccc(-c2ccc(OC(F)(F)F)cc2)cc1)Nc1ccc(C(=O)NCCC(=O)O)cc1 [Compound 19-9, (S)-3-(4-((1-(4′-(trifluoromethoxy)-[1,1′-biphenyl]-4-yl)heptan-2-yl)amino)benzamido)propanoic Acid]"
373 nM,195 nM,"CC(C)CC[C@@H](Cc1ccc(-c2ccc(C(F)(F)F)cc2)cc1)Nc1ccc(C(=O)NCCC(=O)O)cc1 [Compound 19-10, (S)-3-(4-((5-methyl-1-(4′-(trifluoromethyl)-[1,1′-biphenyl]-4-yl)hexan-2-yl)amino)benzamido)propanoic Acid]"
259.9 nM,283 nM,"CCCC[C@@H](Cc1ccc(-c2cc3ccccc3o2)cc1)Nc1ccc(C(=O)NCCC(=O)O)cc1 [Compound 19-11, (S)-3-(4-((1-(4-(benzofuran-2-yl)phenyl)hexan-2-yl)amino)benzamido)propanoic Acid]"
1788 nM,763 nM,"CCCOC[C@H](Cc1ccc(-c2ccc(C(C)(C)C)cc2)cc1)Nc1ccc(C(=O)NCCC(=O)O)cc1 [Compound 19-12, (S)-3-(4-((1-(4′-(tert-butyl)-[1,1′-biphenyl]-4-yl)-3-propoxypropan-2-yl)amino)benzamido)propanoic Acid]"
740 nM,621 nM,"CCCOC[C@H](Cc1ccc(-c2ccc(C(F)(F)F)cc2)cc1)Nc1ccc(C(=O)NCCC(=O)O)cc1 [Compound 19-13, (S)-3-(4-((1-propoxy-3-(4′-(trifluoromethyl)-[1,1′-biphenyl]-4-yl)propan-2-yl)amino)benzamido)propanoic Acid]"
787 nM,444 nM,"CCCOC[C@H](Cc1ccc(-c2ccc(OC(F)(F)F)cc2)cc1)Nc1ccc(C(=O)NCCC(=O)O)cc1 [Compound 19-14, (S)-3-(4-((1-propoxy-3-(4′-(trifluoromethoxy)-[1,1′-biphenyl]-4-yl)propan-2-yl)amino)benzamido)propanoic Acid]"
2029 nM,2670 nM,"CCCOC[C@H](Cc1ccc(-c2ccc(Cl)cc2Cl)cc1)Nc1ccc(C(=O)NCCC(=O)O)cc1 [Compound 19-15, (S)-3-(4-((1-(2′,4′-dichloro-[1,1′-biphenyl]-4-yl)-3-propoxypropan-2-yl)amino)benzamido)propanoic Acid]"
1729 nM,3700 nM,"CCCOC[C@H](Cc1ccc(-c2c(C)cc(C)cc2C)cc1)Nc1ccc(C(=O)NCCC(=O)O)cc1 [Compound 19-16, (S)-3-(4-((1-propoxy-3-(2′,4′,6′-trimethyl-[1,1′-biphenyl]-4-yl)propan-2-yl)amino)benzamido)propanoic Acid]"
916.8 nM,688 nM,CC(C)COC[C@@H](Cc1ccc(-c2ccc(C(F)(F)F)cc2)cc1)Nc1ccc(C(=O)NCCC(=O)O)cc1 [Compound 19-18]
986.5 nM,745 nM,"CCCOC[C@H](Cc1ccc(-c2ccc(C(F)(F)F)cc2)cc1)Nc1ccc(C(=O)NCCC(=O)O)cc1 [Compound 19-22, (S)-3-(4-((1-propoxy-3-(4′-(trifluoromethyl)-[1,1′-biphenyl]-4-yl)propan-2-yl)amino)benzamido)propanoic Acid]"
1126 nM,1310 nM,"CCCOC[C@H](Cc1ccc(-c2cccc(C(F)(F)F)c2)cc1)Nc1ccc(C(=O)NCCC(=O)O)cc1 [Compound 19-23, (S)-3-(4-((1-propoxy-3-(3′-(trifluoromethyl)-[1,1′-biphenyl]-4-yl)propan-2-yl)amino)benzamido)propanoic Acid]"
630.4 nM,512 nM,"CCCOC[C@H](Cc1ccc(-c2ccc(OC(F)(F)F)cc2)cc1)Nc1ccc(C(=O)NCCC(=O)O)cc1 [Compound 19-24, (S)-3-(4-((1-propoxy-3-(4′-(trifluoromethoxy)-[1,1′-biphenyl]-4-yl)propan-2-yl)amino)benzamido)propanoic Acid]"
1513 nM,1280 nM,"CCCOC[C@H](Cc1ccc(-c2cccc(OC(F)(F)F)c2)cc1)Nc1ccc(C(=O)NCCC(=O)O)cc1 [Compound 19-25, (S)-3-(4-((1-propoxy-3-(3′-(trifluoromethoxy)-[1,1′-biphenyl]-4-yl)propan-2-yl)amino)benzamido)propanoic Acid]"
902.8 nM,592 nM,"CCCOC[C@H](Cc1ccc(-c2cc3ccccc3o2)cc1)Nc1ccc(C(=O)NCCC(=O)O)cc1 [Compound 19-26, (S)-3-(4-((1-(4-(benzofuran-2-yl)phenyl)-3-propoxypropan-2-yl)amino)benzamido)propanoic Acid]"
4952 nM,455 nM,"CCCOC[C@H](Cc1ccc(-c2cc3ccccc3[nH]2)cc1)Nc1ccc(C(=O)NCCC(=O)O)cc1 [Compound 19-27, (S)-3-(4-((1-(4-(1H-indol-2-yl)phenyl)-3-propoxypropan-2-yl)amino)benzamido)propanoic Acid]"

SMILES,IC50 cAMP [1],IC50 [2]
"CC(C)COC[C@@H](Cc1ccc(-c2ccc(C(C)(C)C)cc2)cc1)Nc1ccc(C(=O)NCCC(=O)O)cc1 [Compound 19-17, (R)-3-(4-((1-(4′-(tert-butyl)-[1,1′-biphenyl]-4-yl)-3-isobutoxypropan-2-yl)amino)benzamido)propanoic Acid]",1225 nM,1040 nM
"CC(C)COC[C@@H](Cc1ccc(-c2ccc(OC(F)(F)F)cc2)cc1)Nc1ccc(C(=O)NCCC(=O)O)cc1 [Compound 19-19, (R)-3-(4-((1-isobutoxy-3-(4′-(trifluoromethoxy)-[1,1′-biphenyl]-4-yl)propan-2-yl)amino)benzamido)propanoic Acid]",582.5 nM,317 nM
"CC(C)COC[C@@H](Cc1ccc(-c2ccc(Cl)cc2Cl)cc1)Nc1ccc(C(=O)NCCC(=O)O)cc1 [Compound 19-20, (R)-3-(4-((1-(2′,4′-dichloro-[1,1′-biphenyl]-4-yl)-3-isobutoxypropan-2-yl)amino)benzamido)propanoic Acid]",822.4 nM,1150 nM
"CC(C)COC[C@@H](Cc1ccc(-c2cc3ccccc3o2)cc1)Nc1ccc(C(=O)NCCC(=O)O)cc1 [Compound 19-21, (R)-3-(4-((1-(4-(benzofuran-2-yl)phenyl)-3-isobutoxypropan-2-yl)amino)benzamido)propanoic Acid]",437.3 nM,269 nM

# From patent US11384060B2, “Amide compounds and use thereof” (ALPHALA CO., LTD., priority 2017, dated 2022)
